This is an account of results in ChEMBL document CHEMBL5120901, “Batatasin III, a Constituent of Dendrobium scabrilingue, Improves Murine Pain-like Behaviors with a Favorable CNS Safety Profile” (J Nat Prod, 2022).

Series [1] has as its system BV-2. Nature of the series: Anti-inflammartory activity against LPS-activated […] cells assessed as reduction in IL-6 levels at 50 uM pretreated with compound for 1 hr followed by co-incubation with LPS for 24 hrs by ELISA. Type of series: functional, cell-based. The settings on record: Mus musculus, time 25.0 hrs. (ELISA stands for enzyme-linked immunosorbent assay.)

For series [2], the system named is BV-2. The series is described as follows: Anti-inflammartory activity against LPS-activated […] cells assessed as reduction in TNF-alpha levels at 50 uM pretreated with compound for 1 hr followed by co-incubation with LPS for 24 hrs by ELISA. The format is functional, cell-based. The settings on record: Mus musculus, time 25.0 hrs.
Series [3] deals with BV-2. The series is described as follows: Anti-inflammatory activity in […] cells assessed as inhibition of LPS-induced NO production at 50 uM pretreated with compound for 1 hr followed by coincubation with LPS for 24 hrs by Griess reagent based analysis. The format is functional, cell-based. The settings on record: Mus musculus, time 25.0 hrs.
Series [4] relates to RAW264.7. The series is described as follows: Anti-inflammartory activity against LPS-activated mouse RAW264.7 cells assessed as reduction in IL-6 levels at 50 uM pretreated with compound for 1 hr followed by incubation with LPS for 12 hrs by ELISA. Type of series: functional, cell-based. The settings on record: time 13.0 hrs.
Series [5] deals with RAW264.7. Nature of the series: Anti-inflammartory activity against LPS-activated mouse RAW264.7 cells assessed as reduction in TNF-alpha levels at 50 uM pretreated with compound for 1 hr followed by incubation with LPS for 12 hrs by ELISA. The format is functional, cell-based. The settings on record: time 13.0 hrs.
The subject of series [6] is RAW264.7. Nature of the series: Anti-inflammartory activity in mouse RAW264.7 cells assessed as inhibition of LPS-induced NO production at 50 uM pretreated with compound for 1 hr followed by incubation with LPS for 12 hrs by Griess reagent based analysis. The format is functional, cell-based. The settings on record: time 13.0 hrs. A general note: Griess reagent forms a coloured azo dye with nitrite.

The nature of series [7]: CNS toxicity in naive ICR mouse assessed as reduction in rotarod latency time at 5 mg/kg, ip measured at <240 mins by rotarod test. Type of series: organism-based. Conditions: in vivo, 4 h. (In general: The rotarod test checks motor coordination on a turning rod.)
Series [8] in a line: CNS toxicity in naive ICR mouse assessed as reduction in spontaneous locomotor activity by measuring reduction in rearing behaviour at 5 mg/kg, ip and measured for 30 mins by LABORAS automated behavioral analysis. The format is organism-based. Conditions: in vivo, 0.5 h.
The nature of series [9]: CNS toxicity in naive ICR mouse assessed as reduction in spontaneous locomotor activity by measuring reduction in climbing behaviour at 5 mg/kg, ip and measured for 2 hrs by LABORAS automated behavioral analysis. The settings on record: in vivo. Type of series: organism-based.
Series [10] is described as follows: CNS toxicity in naive ICR mouse assessed as reduction in spontaneous locomotor activity at 5 mg/kg, ip and measured for 30 mins by LABORAS automated behavioral analysis. The format is organism-based. Conditions: in vivo, 0.5 h.
Series [11] is described as follows: CNS toxicity in naive ICR mouse assessed as reduction in spontaneous locomotor activity by measuring reduction in animal's movement speed in arena at 5 mg/kg, ip and measured for 30 mins by LABORAS automated behavioral analysis. The format is organism-based. Conditions: in vivo, 0.5 h.
Series [12] can be described thus: CNS toxicity in naive ICR mouse assessed as reduction in spontaneous locomotor activity by measuring reduction in climbing behaviour at 5 mg/kg, ip and measured for 30 mins by LABORAS automated behavioral analysis. Type of series: organism-based. The settings on record: in vivo, 0.5 h.
A short description of series [13]: CNS toxicity in naive ICR mouse assessed as reduction in spontaneous locomotor activity by measuring reduction in animal's movement speed in arena at 5 mg/kg, ip and measured for 2 hrs by LABORAS automated behavioral analysis. Type of series: organism-based. Conditions: in vivo.
Series [14] is described as follows: CNS toxicity in naive ICR mouse assessed as reduction in spontaneous locomotor activity by measuring increase in immobility behaviour at 5 mg/kg, ip and measured for 2 hrs by LABORAS automated behavioral analysis. The format is organism-based. Conditions: in vivo.
Series [15] is described as follows: CNS toxicity in naive ICR mouse assessed as reduction in spontaneous locomotor activity by measuring increase in immobility behaviour at 5 mg/kg, ip and measured for 30 mins by LABORAS automated behavioral analysis. The format is organism-based. The settings on record: in vivo, 0.5 h.
The nature of series [16]: CNS toxicity in naive ICR mouse assessed as reduction in spontaneous locomotor activity by measuring reduction in rearing behaviour at 5 mg/kg, ip and measured for 2 hrs by LABORAS automated behavioral analysis. Type of series: organism-based. Conditions: in vivo.
The nature of series [17]: CNS toxicity in naive ICR mouse assessed as reduction in spontaneous locomotor activity by measuring reduction in distance travelled in arena at 5 mg/kg, ip and measured for 30 mins by LABORAS automated behavioral analysis. Conditions: in vivo, 0.5 h. The format is organism-based.
Series [18] can be described thus: CNS toxicity in naive ICR mouse assessed as motor coordination at 5 mg/kg, ip measured after 240 mins by rotarod test. The format is organism-based. The settings on record: in vivo, 4 h.
Series [19] can be described thus: CNS toxicity in naive ICR mouse assessed as reduction in spontaneous locomotor activity at 5 mg/kg, ip and measured for 2 hrs by LABORAS automated behavioral analysis. Type of series: organism-based. The settings on record: in vivo.
Series [20] in a line: CNS toxicity in naive ICR mouse assessed as reduction in spontaneous locomotor activity by measuring reduction in distance travelled in arena at 5 mg/kg, ip and measured for 2 hrs by LABORAS automated behavioral analysis. The format is organism-based. The settings on record: in vivo.
For series [21], the system named is Mus musculus. The series is described as follows: Anti-inflammatory activity against LPS-induced inflammatory pain-like behaviour ICR mouse model assessed as reduction in TNF-alpha levels in plasma at 10 mg/kg, ip treated with LPS for 2 hrs followed by drug administration for 1 hr by ELISA. The format is functional, organism-based.
Series [22] has as its system Mus musculus. Nature of the series: Anti-inflammatory activity against LPS-induced inflammatory pain-like behaviour ICR mouse model assessed as improvement in locomotor activity by measuring decrease in immobility behaviour at 10 mg/kg, ip treated with LPS for 2 hrs followed by drug administration for 1 hr and measured for 5 mins by LABORAS analysis. Type of series: functional, organism-based. Conditions: time 65.0 min.

Series [23] has as its system Mus musculus. The series is described as follows: Anti-inflammatory activity against LPS-induced inflammatory pain-like behaviour ICR mouse model assessed as improvement in locomotor activity by measuring increase in distance travelled in LABORAS arena at 10 mg/kg, ip treated with LPS for 2 hrs followed by drug administration for 1 hr and measured for 5 mins by LABORAS analysis. The format is functional, organism-based. The settings on record: time 65.0 min.

The subject of series [24] is Mus musculus. Nature of the series: Anti-inflammatory activity against LPS-induced inflammatory pain-like behaviour ICR mouse model assessed as improvement in locomotor activity by measuring increase in animal's movement speed in LABORAS arena at 10 mg/kg, ip treated with LPS for 2 hrs followed by drug administration for 1 hr and measured for 5 mins by LABORAS analysis. The format is functional, organism-based. Conditions: time 65.0 min.

Series [25] has as its system Mus musculus. Nature of the series: Analgesic activity against formalin-induced inflammatory pain-like behaviour ICR mouse model assessed as inhibition of hind paw licking behaviour at 10 mg/kg, ip administered 60 mins prior to formalin challenge and measured after 10 to 40 mins by formalin test. The settings on record: time 70-100 min. The format is functional.
The test system of series [26] is Mus musculus. Nature of the series: Anti-inflammatory activity against LPS-induced inflammatory pain-like behaviour ICR mouse model assessed as reduction in IL-6 levels in plasma at 10 mg/kg, ip treated with LPS for 2 hrs followed by drug administration for 1 hr by ELISA. The format is functional, organism-based.
Series [27] relates to Mus musculus. The series is described as follows: Anti-inflammatory activity against LPS-induced inflammatory pain-like behaviour ICR mouse model assessed as improvement in locomotor activity by measuring increased mobile behaviours at 10 mg/kg, ip treated with LPS for 2 hrs followed by drug administration for 1 hr and measured for 5 mins by LABORAS analysis. Type of series: functional, organism-based. The settings on record: time 65.0 min.

Calls of active or inactive are those of the source. The calls are words filed in the database; no cut-off is given here.

In the case of `CN(C)c1ccc(O)c2c1C[C@H]1C[C@H]3[C@H](N(C)C)C(O)=C(C(N)=O)C(=O)[C@@]3(O)C(O)=C1C2=O`, the result in the series with BV-2 [1], with BV-2 [2] and in the series on BV-2 [3] was Active.

In the case of `C[C@@H]1C[C@H]2[C@@H]3CCC4=CC(=O)C=C[C@]4(C)[C@@]3(F)[C@@H](O)C[C@]2(C)[C@@]1(O)C(=O)CO`, the result in the series with RAW264.7 [4], with RAW264.7 [5] and with RAW264.7 [6] was Active.

Take `CN(C)CCCN1c2ccccc2Sc2ccc(Cl)cc21` [CHLORPROMAZINE]: the Activity result in series [7], in series [8], in series [9], in series [10], in series [11] and in series [12] was “Toxic” in each case. The Activity entry in series [13] is on record as “Toxic”; in series [14] it was “Toxic”; in series [15] it was “Toxic”; in [16], “Toxic”; in series [17], “Toxic”; in series [18], “Non-Toxic”. Also, the Activity entry in series [19] and in series [20] was “Toxic” each time.

The inhibition in vivo is the percentage by which the read-out fell short of the control. Regarding `COc1ccc2c(c1)c(CC(=O)O)c(C)n2C(=O)c1ccc(Cl)cc1` [INDOMETHACIN], the outcome in the series on Mus musculus [21], in the series with Mus musculus [22], in the series with Mus musculus [23], in the series on Mus musculus [24], in the series with Mus musculus [26] and with Mus musculus [27] was Active. Moreover, the inhibition in vivo at 10 mg/kg in the series with Mus musculus [25] was determined as 71.6%.
